# According to patent US10130630B2, “BTK inhibitors” (MERCK SHARP & DOHME CORP., priority 2014, dated 2018):
# Where two headings read alike, the source gives them in different places.
# Key:
# [1] = molecular target: T1, BTK enzyme (full-length BTK, hBTK) (Homo sapiens, UniProt Q06187); experiment: Btk enzyme activity assay (LANCE TR-FRET); assay type: biochemical; conditions: 50 pM hBTK, 25 μM ATP, 60 minute compound and enzyme incubation, read-out: BTK binding IC50
# T1 construct: recombinant protein from baculovirus-transfected Sf9 cells: full-length BTK, 6HIS-tag cleaved; 6HIS (cleaved yes); made in house; host or cells: baculovirus-transfected Sf9 cells
# T1 sequence (Q06187 whole entry): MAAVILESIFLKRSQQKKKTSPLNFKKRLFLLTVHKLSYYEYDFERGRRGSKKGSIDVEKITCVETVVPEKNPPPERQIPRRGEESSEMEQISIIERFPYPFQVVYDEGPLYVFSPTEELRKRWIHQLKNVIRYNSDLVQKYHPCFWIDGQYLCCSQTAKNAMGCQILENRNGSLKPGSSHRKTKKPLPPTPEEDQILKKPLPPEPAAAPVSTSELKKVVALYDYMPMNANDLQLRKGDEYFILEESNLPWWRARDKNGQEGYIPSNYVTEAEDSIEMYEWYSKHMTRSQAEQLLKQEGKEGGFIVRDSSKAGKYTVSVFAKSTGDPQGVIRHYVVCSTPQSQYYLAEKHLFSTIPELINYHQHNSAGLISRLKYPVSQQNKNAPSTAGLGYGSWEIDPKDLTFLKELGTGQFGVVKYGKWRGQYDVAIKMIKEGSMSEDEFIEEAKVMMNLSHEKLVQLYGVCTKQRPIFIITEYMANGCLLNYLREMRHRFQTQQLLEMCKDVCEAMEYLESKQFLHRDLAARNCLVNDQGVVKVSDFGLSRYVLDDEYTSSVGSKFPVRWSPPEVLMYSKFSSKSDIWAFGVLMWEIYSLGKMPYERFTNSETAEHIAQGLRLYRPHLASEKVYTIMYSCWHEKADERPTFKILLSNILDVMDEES
# Experimental: BTK enzymatic activity was determined with the LANCE (Lanthanide Chelate Excite) TR-FRET (Time-resolved fluorescence resonance energy transfer) assay. […] To each well of a black non-binding surface Corning 384-well microplate (Corning Catalog #3820), 5 nL of compound (2000 fold dilution in final assay volume of 10 μL) was dispensed, followed by the addition of 7.5 μL of 1× kinase buffer (50 mM Hepes 7.5, 10 mM MgCl2, 0.01% Brij-35, 1 mM EGTA, 0.05% BSA & 1 mM DTT) containing 5.09 pg/μL (66.67 pM) of BTK enzyme (recombinant protein from baculovirus-transfected Sf9 cells: full-length BTK, 6HIS-tag cleaved). Following a 60 minute compound and enzyme incubation, each reaction was initiated by the addition of 2.5 μL 1× kinase buffer containing 8 μM biotinylated “A5” peptide (Biotin-[…]-NH2) (SEQ.ID.NO.: 1), and 100 μM ATP. The final reaction in each well of 10 μL consists of 50 pM hBTK, 2 μM biotin-A5-peptide, and 25 μM ATP. Phosphorylation reactions were allowed to proceed for 120 minutes. Reactions were immediately quenched by the addition of 20 uL of 1× quench buffer (15 mM EDTA, 25 mM Hepes 7.3, and 0.1% Triton X-100) containing detection reagents (0.626 nM of LANCE-Eu-W1024-anti-phosphoTyrosine antibody, PerkinElmer and 86.8 nM of Streptavidin-conjugated Dylight 650, Dyomics/ThermoFisher Scientific). After 60 minutes incubation with detection reagents, reaction plates were read on a PerkinElmer EnVision plate reader using standard TR-FRET protocol. Briefly, excitation of donor molecules (Eu-chelate:anti-phospho-antibody) with a laser light source at 337 nm produces energy that can be transferred to Dylight-650 acceptor molecules if this donor:acceptor pair is within close proximity. Fluorescence intensity at both 665 nm (acceptor) and 615 nm (donor) are measured and a TR-FRET ratio calculated for each well (acceptor intensity/donor intensity). IC50 values were determined by 4 parameter robust fit of TR-FRET ratio values vs. (Log10) compound concentrations.
# The following Table 2 provides specific IC50 values for all the examples. The IC50 values set forth below were determined according to Assay method described above.
# [2] = tested on: adenosine uptake into HeLa cells; experiment: [3H]Adenosine uptake assay in HeLa cells; assay type: cell-based; conditions: 60 minutes uptake, read-out: ADU inhibition IC50 (adenosine uptake inhibition potency)
# Experimental: Compounds were also screened in an adenosine uptake functional cellular assay using the protocol described below.
# Adenosine uptake activity was determined by monitoring the accumulation of tritiated adenosine into HeLa cells (ATCC catalog # CCL-2) using a PMT-based radiometric detection instrument. In this assay, the potency (IC50) of each compound was determined from a ten point (1:3 serial dilution; final compound concentration range in assay from 10 μM to 0.032 nM) titration curve using the following outlined procedure. To each well of a 96-well CytoStar-T scintillating microplate (Perkin Elmer Catalog # RPNQ0163), 25 000 HeLa cells in 100 μL of growth medium comprising: Minimum Essential Media (Life Technologies Catalog # 11095-080)+10% (v/v) foetal bovine serum (FBS; Sigma Aldrich Catalog # F2442) was added. These cells were incubated overnight at 37° C. in a humidified atmosphere with 5% (v/v) CO2. After this time the growth medium was removed and replaced with 40 μL assay medium comprising: Hanks balanced salts solution (HBSS; Thermo Fisher Catalog # SH30268.01)+5% (v/v) FBS. Compound stock solutions in DMSO were diluted in assay medium to 2.5× final compound concentration maintaining a constant DMSO concentration of 0.25% (v/v). 40 μL of compound in assay medium was dispensed into individual wells of the Cytostar-T plates and the plates were incubated for 30 minutes under ambient laboratory conditions. Following this incubation, 20 μL of 500 nM [^3H]adenosine (American Radiolabeled Chemicals Inc. Catalog # ART0287) in assay medium was added and incubated for a further 60 minutes under ambient laboratory conditions. The amount of radiolabel accumulation was then determined using a Perkin Elmer Topcount NXT microplate reader. In brief, HeLa cells adhere to the bottom of the Cytostar-T plate, uptake of [^3H]adenosine into these cells brings the radiolabel into sufficient proximity to excite the scintillant in the base of the plates. These events are captured by single PMT, time-resolved coincidence counting. IC50 values were determined by 4 parameter robust fit of counts per second values vs. (Log10) compound concentrations.
SMILES,IC50 [1] [nM],"IC50 ([2]; Homo sapiens, HeLa) [nM]",IC50 [2] [nM]
"Nc1nccn2c([C@@H]3CC[C@H]4[C@@H](O)C5(CC5)C(=O)N4C3)nc(-c3ccc(C(=O)Nc4cc(C(F)(F)F)ccn4)cc3F)c12 [Compound 12, 4-(8-amino-3-((1′S,6′R,8a′S)-1′-hydroxy-3′-oxohexahydro-1′H-spiro[cyclopropane-1,2′-indolizin]-6′-yl)imidazo[1,5-a]pyrazin-1-yl)-3-fluoro-N-(4-(trifluoromethyl)pyridin-2-yl)benzamide]",0.385,963,–
"Nc1nccn2c([C@@H]3CC[C@H]4C(O)C5(CC5)C(=O)N4C3)nc(-c3ccc(C(=O)Nc4cc(C5CC5)ccn4)cc3)c12 (stereo partly drawn) [Compound 13, 4-(8-amino-3-((1′S,6′R,8a′S)-1′-hydroxy-3′-oxohexahydro-1′H-spiro[cyclopropane-1,2′-indolizin]-6′-yl)imidazo[1,5-a]pyrazin-1-yl)-N-(4-cyclopropanepyridin-2-yl)benzamide]",1.22,610,–
"CCOc1cc(C(=O)Nc2cc(C(F)(F)F)ccn2)ccc1-c1nc([C@@H]2CC[C@H]3[C@@H](OC)C4(CC4)C(=O)N3C2)n2ccnc(N)c12 [Compound 14, 4-(8-amino-3-((1′S,6′R,8a′S)-1′-methoxy-3′-oxohexahydro-1′H-spiro[cyclopropane-1,2′-indolizin]-6′-yl)imidazo[1,5-a]pyrazin-1-yl)-3-ethoxy-N-(4-(trifluoromethyl)pyridin-2-yl)benzamide]",1.28,828,–
"CCOc1cc(C(=O)Nc2cc(C(F)(F)F)ccn2)ccc1-c1nc([C@@H]2CC[C@H]3CN4CCC[C@@H]4C(=O)N3C2)n2ccnc(N)c12 [Compound 15, 4-{8-amino-3-[(5aS,8R,11aR)-11-oxodecahydro-1H-pyrido[1,2-a]pyrrolo[1,2-d]pyrazin-8-yl]imidazo[1,5-a]pyrazin-1-yl}-3-ethoxy-N-[4-(trifluoromethyl)pyridin-2-yl]benzamide]",0.462,1110,–
"CCOc1cc(C(=O)Nc2cc(C(F)(F)F)ccn2)cc(F)c1-c1nc([C@@H]2CC[C@@H]3N(C2)C(=O)CC32CC2)n2ccnc(N)c12 [Compound 20, 4-{8-amino-3-[(6′R,8a′S)-3′-oxohexahydro-5′H-spiro[cyclopropane-1,1′-indolizin]-6′-yl]imidazo[1,5-a]pyrazin-1-yl}-3-ethoxy-5-fluoro-N-[4-(trifluoromethyl)pyridin-2-yl]benzamide]",0.171,871,–
"CCOc1cc(C(=O)Nc2cc(C3CC3)ccn2)cc(F)c1-c1nc([C@@H]2CC[C@@H]3N(C2)C(=O)CC32CC2)n2ccnc(N)c12 [Compound 21, 4-{8-amino-3-[(6′R,8a′S)-3′-oxohexahydro-5′H-spiro[cyclopropane-1,1′-indolizin]-6′-yl]imidazo[1,5-a]pyrazin-1-yl}-N-(4-cyclopropylpyridin-2-yl)-3-ethoxy-5-fluorobenzamide]",0.16,1060,–
"CCOc1cc(C(=O)Nc2cc(C(F)(F)F)n(C)n2)cc(F)c1-c1nc(C2CCC3N(C2)C(=O)CC32CC2)n2c(F)cnc(N)c12 (stereo not shown) [Compound 22, 4-[8-amino-5-fluoro-3-(3′-oxohexahydro-5′H-spiro[cyclopropane-1,1′-indolizin]-6′-yl)imidazo[1,5-a]pyrazin-1-yl]-3-ethoxy-5-fluoro-N-[1-methyl-5-(trifluoromethyl)-1H-pyrazol-3-yl]benzamide]",0.269,1430,–
"CCOc1cc(C(=O)Nc2cc(C(F)(F)F)n(C)n2)cc(F)c1-c1nc(C2CCC3N(C2)C(=O)CC32CC2)n2c(F)cnc(N)c12 (stereo not shown) [Compound 23, 4-[8-amino-5-fluoro-3-(3′-oxohexahydro-5′H-spiro[cyclopropane-1,1′-indolizin]-6′-yl)imidazo[1,5-a]pyrazin-1-yl]-3-ethoxy-5-fluoro-N-[1-methyl-5-(trifluoromethyl)-1H-pyrazol-3-yl]benzamide]",5.9,–,2090
"CCOc1cc(C(=O)Nc2cc(C(F)(F)F)ccn2)cc(F)c1-c1nc([C@@H]2CC[C@@H]3N(C2)C(=O)C2(CC2)C3(F)F)n2ccnc(N)c12 [Compound 28, 4-{8-amino-3-[(6′R,8a′S)-1′,1′-difluoro-3′-oxohexahydrospiro[cyclopropane-1,2′-indolizin]-6′-yl]imidazo[1,5-a]pyrazin-1-yl}-3-ethoxy-5-fluoro-N-[4-(trifluoromethyl)pyridin-2-yl]benzamide]",1.54,1950,–

# Results, then the compound that gave them:
IC50 [1] [nM],"IC50 ([2]; Homo sapiens, HeLa) [nM]",IC50 [2] [nM],SMILES
0.489,1670,–,"CCOc1cc(C(=O)Nc2cc(C(F)(F)F)ccn2)ccc1-c1nc([C@@H]2CC[C@H]3CN4CCC[C@H]4C(=O)N3C2)n2ccnc(N)c12 [Compound 16, 4-{8-amino-3-[(5aS,8R,11aS)-11-oxodecahydro-1H-pyrido[1,2-a]pyrrolo[1,2-d]pyrazin-8-yl]imidazo[1,5-a]pyrazin-1-yl}-3-ethoxy-N-[4-(trifluoromethyl)pyridin-2-yl]benzamide]"
0.501,1700,–,"CCOc1cc(C(=O)Nc2cc(C(F)(F)F)ccn2)ccc1-c1nc([C@@H]2CC[C@H]3CNC4(CCC4)C(=O)N3C2)n2ccnc(N)c12 [Compound 17, 4-{8-amino-3-[(7′R,9a′S)-4′-oxohexahydro-2′H-spiro[cyclobutane-1,3′-pyrido[1,2-a]pyrazin]-7′-yl]imidazo[1,5-a]pyrazin-1-yl}-3-ethoxy-N-[4-(trifluoromethyl)pyridin-2-yl]benzamide]"
0.127,1110,–,"CCOc1cc(C(=O)Nc2cc(C(F)(F)F)ccn2)ccc1-c1nc([C@@H]2CC[C@@H]3N(C2)C(=O)CC32CC2)n2ccnc(N)c12 [Compound 18, 4-{8-amino-3-[(6′R,8a′S)-3′-oxohexahydro-5′H-spiro[cyclopropane-1,1′-indolizin]-6′-yl]imidazo[1,5-a]pyrazin-1-yl}-3-ethoxy-N-[4-(trifluoromethyl)pyridin-2-yl]benzamide]"
3.81,613,–,"CCOc1cc(C(=O)Nc2cc(C(F)(F)F)ccn2)ccc1-c1nc([C@H]2CC[C@H]3N(C2)C(=O)CC32CC2)n2ccnc(N)c12 [Compound 19, 4-{8-amino-3-[(6′S,8a′R)-3′-oxohexahydro-5′H-spiro[cyclopropane-1,1′-indolizin]-6′-yl]imidazo[1,5-a]pyrazin-1-yl}-3-ethoxy-N-[4-(trifluoromethyl)pyridin-2-yl]benzamide]"
1.6,1140,–,"CCOc1cc(C(=O)Nc2cc(C(F)(F)F)ccn2)ccc1-c1nc([C@@H]2CC[C@@H]3N(C2)C(=O)C2(CC2)C3(F)F)n2ccnc(N)c12 [Compound 27, 4-{8-amino-3-[(6′R,8a′S)-1′,1′-difluoro-3′-oxohexahydrospiro[cyclopropane-1,2′-indolizin]-6′-yl]imidazo[1,5-a]pyrazin-1-yl}-3-ethoxy-N-[4-(trifluoromethyl)pyridin-2-yl]benzamide]"
